Measurements: US20080145858A1, “DETECTION AND IDENTIFICATION OF TOXICANTS BY MEASUREMENT OF GENE […]” (priority 2003, published 2008)

System: Xenopus laevis cleavage stage embryos (stage 8)
Experiment: Xenopus cDNA microarray, differential gene expression after PMA treatment during cleavage stage (Group I)
Type: in vivo
Details: PMA 100 ng/ml, stage 8
Text: Specifically, the method and screen of the present invention function as follows. EST clones produced from Xenopus laevis unfertilized eggs were used in the present study with ˜1,200 EST clones from a 18,500 EST clone set selected for production of a Xenopus cDNA microarray. The Xenopus microarray was used to measure the effect of chemical treatment on Xenopus embryo gene regulation. The chemical treatment was a phorbol ester, PMA. Xenopus eggs were obtained from females induced for ovulation and fertilized in vitro. Control Xenopus laevis embryos were allowed to develop to stage 8 blastula or stage 15 neurula. Treated embryos were exposed to PMA during cleavage stage or during neurulation with end points of blastula (stage 8) or neurula (stage 15). Specifically, PMA 100 ng/ml was added to the incubation media during cleavage stages for evaluation in stage 8 embryo or PMA was added during neural induction for evaluation in stage 15 embryos. RNA extracted from the embryos was used to generate fluorescent cDNA probes for Xenopus microarray analyses to measure differential gene expression with and without the phorbol ester treatment. Analysis was performed using paired RNA samples to compare PMA-treated and untreated embryos: Group I measured the effects of PMA-treatment during the cleavage stage in stage 8 embryos and Group II measured the effects of PMA-treatment during neurulation in stage 15 embryos. Group III measured the change in gene expression between stage 8 and stage 15 embryos.
cDNA fragments were obtained by PCR replication of Xenopus laevis unfertilized egg cDNA inserts, purified, quantitated and loaded onto glass chips by robotics. In addition to the selected ˜1,200 genes, 64 lambda Q gene, an internal control cDNA (Genomic Solutions, Inc., Ann Arbor, Mich.) was loaded on the chip. The insert DNA from ˜1,200 clones were PCR amplified using forward and reverse primers (GF.200 primers, Research Genetics, Huntsville, Ala.). A second PCR was carried out using 1 μl of the primary PCR (20 μl) for template. Excess dNTPs, polymerase and other PCR artifacts were removed from the secondary PCR reactions using Millipore Multiscreen plates (Millipore Corporation, Bedford, Mass.) using the standard protocol. The purity of the PCR products was assessed by electrophoresis and documented using an Alphalmager 1000 Digital Imaging System (Alpha Innotech Corporation, San Leandro, Calif.). The DNA obtained by PCR was quantitated using PicoGreen (Molecular Probes, Eugene, Oreg.). The DNA was denatured and arrayed onto amino-silane coated microscope slides (CMT-GAPS coated slides, Corning, Corning, N.Y.) using a Flexys robotic workstation (Genomic Solutions Inc.). The ˜1,200 PCR products were arrayed in duplicate on each slide and cross-linked. Each gene chip contained duplicate cDNA samples.
Total RNA was prepared from embryos treated in three separate dishes per treatment group that were pooled. Total RNA was isolated from the frog embryos (1,200 embryos for each probe production) using TRIzol extraction (Gibco BRL, Grand Island, N.Y.) and Qiagen RNeasy kits (Qiagen, Valencia, Calif.). The ethanol precipitated RNA was resuspended in RNase-free water, quantitated with RiboGreen (Molecular Probes, Eugene, Oreg.). Total RNA was further purified using oligoTex mRNA maxi kit (Qiagen Co.) with the bound mRNA eluted with minimum volume of elution buffer and precipitated with ethanol. The recovery rate of mRNA by the ethanol precipitation method was ˜70%. Cy3- or Cy5-tagged probes were produced from an mRNA mixture (20 μl) of Xenopus mRNA (5 μg) and lambda Q gene mRNA (3.5 ng) reverse-transcribed with oligo(dT)18-22 primer and dNTPs and the reverse-transcribed cDNA was cross-linked with Cy3 or Cy5 as described in Clontech Atlas™ Glass Fluorescent Labeling kit manual (www.clontech.com). After hydrolysis of the RNA and purification of the probe (Centricon 50, Millipore, Bedford, Mass.), the cDNA in TE buffer was quantitated by absorbance at 260 nm. […]

CCCCCCCCCCCCCC(=O)O[C@@H]1[C@@H](C)[C@@]2(O)[C@@H](C=C(CO)C[C@]3(O)C(=O)C(C)=C[C@@H]23)[C@@H]2C(C)(C)[C@]12OC(C)=O [PMA, phorbol 12-myristate 12-acetate]
Ratio of Medians (Cy5/Cy3) Mean (PBX0138A04 mRNA): 2.99 ± 1.32
Ratio of Medians (Cy5/Cy3) Second Spot (PBX0138A04 mRNA): 4.33
(CY3/CY5) by Landmarks (1.6) (PBX0138C12 mRNA): 3.59
(CY3/CY5) by all Data Points (1.3) (PBX0138C12 mRNA): 5.74
Normalization by Landmarks (1.6) (PBX0138C12 mRNA): 0.28
Normalization by all Data Points (1.3) (PBX0138C12 mRNA): 0.17
Ratio of Medians (Cy5/Cy3) First Spot (PBX0138C12 mRNA): 0.14
Ratio of Medians (Cy5/Cy3) Mean (PBX0138C12 mRNA): 0.13 ± 0.01
Ratio of Medians (Cy5/Cy3) Second Spot (PBX0138C12 mRNA): 0.13
Normalized by Landmarks (1.59) (PBX0138D01 mRNA): 4.45
Normalized by all Data Points (1.28) (PBX0138D01 mRNA): 3.58
Ratio of Medians (Cy5/Cy3) First Spot (PBX0138D01 mRNA): 3.50
Ratio of Medians (Cy5/Cy3) Mean (PBX0138D01 mRNA): 2.80 ± 0.70
Ratio of Medians (Cy5/Cy3) Second Spot (PBX0138D01 mRNA): 2.10
(CY3/CY5) by Landmarks (1.6) (PBX0138E10 mRNA): 2.68
(CY3/CY5) by all Data Points (1.3) (PBX0138E10 mRNA): 4.29
Normalization by Landmarks (1.6) (PBX0138E10 mRNA): 0.37
Normalization by all Data Points (1.3) (PBX0138E10 mRNA): 0.23
Ratio of Medians (Cy5/Cy3) First Spot (PBX0138E10 mRNA): 0.15
Ratio of Medians (Cy5/Cy3) Mean (PBX0138E10 mRNA): 0.18 ± 0.03
Ratio of Medians (Cy5/Cy3) Second Spot (PBX0138E10 mRNA): 0.21
(CY3/CY5) by Landmarks (1.6) (PBX0138G10 mRNA): 3.35
(CY3/CY5) by all Data Points (1.3) (PBX0138G10 mRNA): 5.36
Normalization by Landmarks (1.6) (PBX0138G10 mRNA): 0.30
Normalization by all Data Points (1.3) (PBX0138G10 mRNA): 0.19
Ratio of Medians (Cy5/Cy3) First Spot (PBX0138G10 mRNA): 0.10
Ratio of Medians (Cy5/Cy3) Mean (PBX0138G10 mRNA): 0.14 ± 0.04
Ratio of Medians (Cy5/Cy3) Second Spot (PBX0138G10 mRNA): 0.18
(CY3/CY5) by Landmarks (1.6) (PBX0138G12 mRNA): 2.56
(CY3/CY5) by all Data Points (1.3) (PBX0138G12 mRNA): 4.09
Normalization by Landmarks (1.6) (PBX0138G12 mRNA): 0.39
Normalization by all Data Points (1.3) (PBX0138G12 mRNA): 0.24
Ratio of Medians (Cy5/Cy3) First Spot (PBX0138G12 mRNA): 0.17
Ratio of Medians (Cy5/Cy3) Mean (PBX0138G12 mRNA): 0.19 ± 0.02
Ratio of Medians (Cy5/Cy3) Second Spot (PBX0138G12 mRNA): 0.21
Normalized by Landmarks (1.59) (PBX0139A08 mRNA): 4.21
Normalized by all Data Points (1.28) (PBX0139A08 mRNA): 3.39
Ratio of Medians (Cy5/Cy3) First Spot (PBX0139A08 mRNA): 2.00
Ratio of Medians (Cy5/Cy3) Mean (PBX0139A08 mRNA): 2.65 ± 0.65
Ratio of Medians (Cy5/Cy3) Second Spot (PBX0139A08 mRNA): 3.29
Normalized by Landmarks (1.59) (PBX0139B06 mRNA): 5.45
Normalized by all Data Points (1.28) (PBX0139B06 mRNA): 4.39
Ratio of Medians (Cy5/Cy3) First Spot (PBX0139B06 mRNA): 4.00
Ratio of Medians (Cy5/Cy3) Mean (PBX0139B06 mRNA): 3.43 ± 0.57
Ratio of Medians (Cy5/Cy3) Second Spot (PBX0139B06 mRNA): 2.86
(CY3/CY5) by Landmarks (1.6) (PBX0139D03 mRNA): 3.15
(CY3/CY5) by all Data Points (1.3) (PBX0139D03 mRNA): 5.04
Normalization by Landmarks (1.6) (PBX0139D03 mRNA): 0.32
Normalization by all Data Points (1.3) (PBX0139D03 mRNA): 0.20
Ratio of Medians (Cy5/Cy3) First Spot (PBX0139D03 mRNA): 0.04
Ratio of Medians (Cy5/Cy3) Mean (PBX0139D03 mRNA): 0.15 ± 0.11
Ratio of Medians (Cy5/Cy3) Second Spot (PBX0139D03 mRNA): 0.26
(CY3/CY5) by Landmarks (1.6) (PBX0139F05 mRNA): 3.52
(CY3/CY5) by all Data Points (1.3) (PBX0139F05 mRNA): 5.64
Normalization by Landmarks (1.6) (PBX0139F05 mRNA): 0.28
Normalization by all Data Points (1.3) (PBX0139F05 mRNA): 0.18
Ratio of Medians (Cy5/Cy3) First Spot (PBX0139F05 mRNA): 0.15
Ratio of Medians (Cy5/Cy3) Mean (PBX0139F05 mRNA): 0.14 ± 0.02
Ratio of Medians (Cy5/Cy3) Second Spot (PBX0139F05 mRNA): 0.12
(CY3/CY5) by Landmarks (1.6) (PBX0139F12 mRNA): 2.63
(CY3/CY5) by all Data Points (1.3) (PBX0139F12 mRNA): 4.21
Normalization by Landmarks (1.6) (PBX0139F12 mRNA): 0.38
Normalization by all Data Points (1.3) (PBX0139F12 mRNA): 0.24
Ratio of Medians (Cy5/Cy3) First Spot (PBX0139F12 mRNA): 0.20
Ratio of Medians (Cy5/Cy3) Mean (PBX0139F12 mRNA): 0.18 ± 0.02
Ratio of Medians (Cy5/Cy3) Second Spot (PBX0139F12 mRNA): 0.16
(CY3/CY5) by Landmarks (1.6) (PBX0139H03 mRNA): 2.11
(CY3/CY5) by all Data Points (1.3) (PBX0139H03 mRNA): 3.38
Normalization by Landmarks (1.6) (PBX0139H03 mRNA): 0.47
Normalization by all Data Points (1.3) (PBX0139H03 mRNA): 0.30
Ratio of Medians (Cy5/Cy3) First Spot (PBX0139H03 mRNA): 0.26
Ratio of Medians (Cy5/Cy3) Mean (PBX0139H03 mRNA): 0.23 ± 0.03
Ratio of Medians (Cy5/Cy3) Second Spot (PBX0139H03 mRNA): 0.20
